Reference: US9307763B2, “Ligands for odor receptors and olfactory neurons” (The Regents of the University of California, priority 2010, dated 2016)

Molecular target: T1, Or59b, ab2A (Drosophila melanogaster, UniProt Q9W1P8)
T1 construct: The 9 Ors tested are expressed in well-defined olfactory receptor neurons (ORNs) housed within the large and small basiconic sensilla; from tissue; host or cells: D. melanogaster antenna, ab2A olfactory receptor neuron (in vivo recording)
T1 sequence (Q9W1P8 1-398): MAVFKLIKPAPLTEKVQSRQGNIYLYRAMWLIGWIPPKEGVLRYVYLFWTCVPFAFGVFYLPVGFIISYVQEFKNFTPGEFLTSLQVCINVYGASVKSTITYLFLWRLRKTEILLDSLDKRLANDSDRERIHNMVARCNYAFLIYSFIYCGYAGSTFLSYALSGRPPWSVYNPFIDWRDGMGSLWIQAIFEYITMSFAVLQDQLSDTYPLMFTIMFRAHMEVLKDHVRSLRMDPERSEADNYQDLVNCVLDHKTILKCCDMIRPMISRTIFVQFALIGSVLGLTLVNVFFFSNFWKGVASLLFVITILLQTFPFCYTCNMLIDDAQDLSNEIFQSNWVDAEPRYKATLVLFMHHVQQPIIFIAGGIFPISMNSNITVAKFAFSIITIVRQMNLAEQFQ
T1 sequence (Q9VNB5 1-486 partner): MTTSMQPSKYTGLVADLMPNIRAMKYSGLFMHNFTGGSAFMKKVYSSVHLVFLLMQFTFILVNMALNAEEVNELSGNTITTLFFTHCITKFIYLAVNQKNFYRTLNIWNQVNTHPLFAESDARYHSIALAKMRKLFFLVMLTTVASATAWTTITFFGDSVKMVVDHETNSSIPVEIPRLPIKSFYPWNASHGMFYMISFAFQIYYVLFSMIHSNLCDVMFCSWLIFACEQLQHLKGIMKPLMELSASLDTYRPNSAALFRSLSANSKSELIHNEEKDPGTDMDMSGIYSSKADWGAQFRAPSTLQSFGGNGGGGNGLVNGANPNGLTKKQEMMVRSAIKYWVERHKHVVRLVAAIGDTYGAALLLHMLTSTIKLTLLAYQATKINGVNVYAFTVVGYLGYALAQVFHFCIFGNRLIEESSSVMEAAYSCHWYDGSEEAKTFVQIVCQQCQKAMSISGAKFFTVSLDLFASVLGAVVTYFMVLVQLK
Experiment: single-sensillum electrophysiology
Format: in vivo
Conditions: odorant at 10^-2
Description: The results of the in silico screen are provocative. However in order to verify whether these predictions were meaningful, functional evidence was obtained. In order to validate the success of the in silico predictions the responses of 9 Odor receptors using single-sensillum electrophysiology directly on the Drosophila melanogaster antenna were analyzed. For each Odor receptor several odorants were tested from the top 500 predicted hits. A sampling of ˜192 novel odorants were tested with ˜11-21 novel odorants tested for each receptor, which were scattered somewhat randomly within the top 500 predictions for each receptor, providing a relatively unbiased set of chemical structures.
To test identified compounds any number of biological assays can be used to measure ORN activity in the presence of a putative ligand/compounds. […] For the purpose of testing each of these volatile compounds the compounds were diluted to ˜10^−2 in paraffin oil or distilled water. The 9 Ors tested are expressed in well-defined olfactory receptor neurons (ORNs) housed within the large and small basiconic sensilla (ab1-ab7) on the antenna. A previously identified diagnostic panel of odorants was used to distinguish individual classes of sensilla (ab1-ab7) and therefore identified the sensilla that contained the target Or expressing ORN. […]

With `CC(=O)OC(C)C` [isopropyl acetate] the “activation of odor receptor (firing rate)” value was greater than 250 spikes/sec.

Tested on: CO2 responsive neurons
Experiment: not given
Conditions: […]; averaged across the top 2 responders of the 4 species; cited from earlier work

In order of rising “Final Activity” value:
1. COC(=O)C(C)=O [methyl pyruvate]  −100
2. CC(=O)C(C)=O [2,3-butanedione]  −99
3. CCCC(=O)O [butyric acid]  −94
4. CCCC=O [butanal]  −85
5. CCC(=O)Cl [propionyl chloride]  −73
6. CCCCCCO [hexanol]  −70
7. CCC=O [propionaldehyde]  −68
8. CCC(=O)C(C)=O [2,3-pentanedione]  −55
9. CCCCC=O [pentanal]  −51
10. CCCCCO [pentanol]  −41
11. CCCCCC(C)O (centres unmarked) [2-heptanol]  −39
12. CCCNCCO [2-(propylamino)-ethanol]  −39
13. CCCC(=O)Cl [butyryl chloride]  −39
14. CCCCCCCO [heptanol]  −38
15. CCCCCCCCO [octanol]  −35
16. CCCCCCCC [octane]  −34
17. CCC(=O)O [propionic acid]  −32
18. CCCCCC=O [hexanal]  −32
19. CCCCC [pentane]  −31
20. CCCCCCC [heptane]  −29
21. C=CC(O)CCCCC (centres unmarked) [1-octen-3-ol]  −27
22. CCCCC(=O)O [pentanoic acid]  −26
23. CCCCC(=O)C(C)C [2-methyl-3-heptanone]  −26
24. CCC(C)=O [butanone]  −25
25. CCCCCCCC(=O)O [octanoic acid]  −21
26. CCCCCCC=O [heptanal]  −21
27. CCCCCCCC=O [octanal]  −20
28. CCCCC(O)CC (centres unmarked) [3-heptanol]  −16
29. CCCCCC(=O)O [hexanoic acid]  −16
30. CCCCCOC(C)=O [pentyl acetate]  −15
31. CSCCCC=O [4-(methylthio)-1-butanal]  −15
32. CCCCCCCCOC(C)=O [octyl acetate]  −15
33. CCCCCC(O)CC (centres unmarked) [3-octanol]  −14
34. c1ccc2ccccc2c1 [naphthalene]  −14
35. CO [Methanol]  −14
36. CCCCCCC(=O)O [heptanoic acid]  −14
37. CCCCCCCCCO [Nonanol]  −12
38. CCCCCCOC(C)=O [hexyl acetate]  −12
39. CC(=O)CCO [4-hydroxy-2-butanone]  −11
40. C=CCc1ccc(OC)c(OC)c1 [Eugenol Methyl Ether]  −9
41. Cc1ccc(C)s1 [2,5-dimethylthiophene]  −9
42. CCCCCCCOC(C)=O [heptyl acetate]  −8
43. c1cnccn1 [pyrazine]  −8
44. CC1CCC(=O)O1 (centres unmarked) [gamma-valerolactone]  −5
45. C=C(C)[C@H]1CC=C(C)CC1 [Limonene]  −2
46. CC(=O)OCCC(C)C [Isoamyl Acetate]  −2
47. CC12CCC(C1)C(C)(C)C2=O (centres unmarked) [Fenchone]  −2
48. CC1CCC(C(C)C)C(O)C1 (centres unmarked) [Menthol]  −2
49. OCCCCCO [1,5-pentanediol]  0
50. CCC/C=C/C=O [(E)2-hexenal]  0
51. C=CC(O)CCCC (centres unmarked) [1-hepten-3-ol]  0
52. CC(C)=CCCC(C)O (centres unmarked) [6-methyl-5-hepten-2-ol]  0
53. CSCCC=O [Methional]  0
54. CCCCCCCC(=O)CC [3-decanone]  1
55. C=CCc1ccc(O)c(OC)c1 [Eugenol]  1
56. CCCCCCC(=O)CC [3-nonanone]  2
57. CC(=O)C(=O)O [pyruvic acid]  2
58. CCCCC(C)O (centres unmarked) [2-hexanol]  2
59. CCCC(=O)CCC [4-heptanone]  2
60. CCCCCCS [1-hexanethiol]  3
61. O=CCc1ccccc1 [phenylacetaldehyde]  3
62. CCCCCCI [1-iodohexane]  3
63. Cc1ccc(O)cc1 [4-methylphenol]  3
64. CCCCCCBr [1-bromohexane]  3
65. CCCCCC[SiH3] [hexylsilane]  3
66. CC(C)O [Isopropyl Alcohol]  3
67. C=C(C)C1CC=C(C)C(=O)C1 (centres unmarked) [Carvone]  4
68. CC(=O)c1ccccc1 [Phenylethanone]  5
69. CCCCC(=O)OCC [ethyl valerate]  5
70. CC=C(C)CC [3-methyl-2-pentene]  5
71. C/C=C\CCC [cis-2-hexene]  5
72. Cc1nc(C)c(C)s1 [2,4,5-trimethylthiazole]  5
73. COCC(C)=O [methoxyacetone]  6
74. O=Cc1ccccc1 [Benzaldehyde]  6
75. COc1ccccc1 [Anisole]  6
76. CCCCCCCl [1-chlorohexane]  8
77. CC(C)=CCC/C(C)=C/CO [Geraniol]  8
78. O=C(c1ccccc1)c1ccccc1 [Benzophenone]  8
79. CCOC(C)=O [Ethyl Acetate]  8
80. CCc1ncc(C)nc1C [2-ethyl-3,5-dimethylpyrazine]  8
81. CC(C)=CCCC(C)CC=O (centres unmarked) [Citronellal]  8
82. CC/C=C\CCO [cis-3-hexen-1-ol]  10
83. CC(=O)CF [fluoroacetone]  10
84. CC(=O)c1ccccc1 [acetophenone]  15
85. Cc1ccc(C(C)C)c(O)c1 [Thymol]  15
86. c1ccc2[nH]ccc2c1 [Indole]  21
87. Cc1ccccc1O [2-methylphenol]  24
88. Cc1cnc(C)cn1 [2,5-dimethylpyrazine]  26
89. CC(=O)c1cccs1 [2-acetylthiophene]  31
90. O=C1CCCCC1 [Cyclohexanone]  48
91. c1cscn1 [thiazole]  100

Same assay, conditions: in vivo; cited from earlier work

In order of falling “Final Activity” value:
1. c1ccncc1 [pyridine]  99
2. CC(=O)O [Acetic Acid]  −7
3. CCO [Ethanol]  −16
4. butanol  −25
5. CCCCCC [hexane]  −25
6. CCCCOC(C)=O [butyl acetate]  −28
